The term IC50 denotes the concentration at which inhibition is half-maximal.

The target in this test is T1, human HSL (Homo sapiens, UniProt Q05469).
T1 construct: generate a full length human HSL ORF with a 3′-His6 tag; made in house; host or cells: High 5 insect cells (baculovirus, pFast-BAC)
T1 sequence (Q05469 1-1076): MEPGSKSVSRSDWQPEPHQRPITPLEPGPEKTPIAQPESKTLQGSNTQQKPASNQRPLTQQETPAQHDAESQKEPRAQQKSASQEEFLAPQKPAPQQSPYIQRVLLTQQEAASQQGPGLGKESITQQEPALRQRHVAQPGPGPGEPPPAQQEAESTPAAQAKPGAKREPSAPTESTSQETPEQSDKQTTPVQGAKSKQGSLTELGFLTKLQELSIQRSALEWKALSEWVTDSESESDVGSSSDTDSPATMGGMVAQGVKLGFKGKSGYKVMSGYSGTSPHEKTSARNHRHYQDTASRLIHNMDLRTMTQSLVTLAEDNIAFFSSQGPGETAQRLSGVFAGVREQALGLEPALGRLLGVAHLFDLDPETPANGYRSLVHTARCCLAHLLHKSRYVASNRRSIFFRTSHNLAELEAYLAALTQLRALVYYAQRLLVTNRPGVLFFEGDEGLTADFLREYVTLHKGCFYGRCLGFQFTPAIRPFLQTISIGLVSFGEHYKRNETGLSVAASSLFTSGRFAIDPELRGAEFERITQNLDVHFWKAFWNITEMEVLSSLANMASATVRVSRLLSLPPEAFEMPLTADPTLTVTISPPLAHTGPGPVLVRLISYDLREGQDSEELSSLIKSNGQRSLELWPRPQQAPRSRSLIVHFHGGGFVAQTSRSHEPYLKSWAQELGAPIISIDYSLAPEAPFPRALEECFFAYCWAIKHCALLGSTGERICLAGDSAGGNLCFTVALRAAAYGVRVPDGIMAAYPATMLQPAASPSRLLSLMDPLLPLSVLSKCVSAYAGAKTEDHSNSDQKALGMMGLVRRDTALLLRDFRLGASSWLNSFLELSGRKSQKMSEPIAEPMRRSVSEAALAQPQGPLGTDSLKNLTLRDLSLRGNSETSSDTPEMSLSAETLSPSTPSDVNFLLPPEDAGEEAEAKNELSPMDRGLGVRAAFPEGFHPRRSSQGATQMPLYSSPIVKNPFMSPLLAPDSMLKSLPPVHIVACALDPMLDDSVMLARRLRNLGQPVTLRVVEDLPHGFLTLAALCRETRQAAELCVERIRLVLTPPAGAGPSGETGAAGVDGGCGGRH
In words: Human Hormone-Sensitive Lipase (HSL) enzyme inhibition assay (colorimetric, DMPT substrate). In kind it is biochemical. Particulars: human full length HSL-His6, 2,3-dimercapto-1-propanol tributyrate substrate, 37° C. 20 minutes, absorbance at 405 nm; read-out: HSL hum IC50. In short, it runs like this:
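Full-length human HSL with C-terminal His6, expressed in baculovirus-infected High 5 cells and Ni-NTA purified, was added (15 ug/ml stock) to 1.5 mM DMPT in 100 mM MOPS pH 7.2, 0.2 mg/ml fatty acid-free BSA containing compound. After 20 min at 37 °C, DTNB with SDS/Triton X-100 was added; A405 read after 15 min at RT.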
For `CC(C)S(=O)(=O)C[C@]1(O)CC[C@]2(CCN(c3ccc(O[C@H](C)C(F)(F)F)nc3)C2=O)CC1` [Example 324, (5α,8α)-8-Hydroxy-8-(propane-2-sulfonylmethyl)-2-[6-((R)-2,2,2-trifluoro-1-methyl-ethoxy)-pyridin-3-yl]-2-aza-spiro[4.5]decan-1-one], the 50% inhibitory concentration (IC50) turned out to be 20 nM.
With `CCC[C@]1(O)CC[C@]2(CCN(Cc3ccc(OC(F)(F)F)cc3)C2=O)CC1` [Example 188, (5α,8α)-8-hydroxy-8-propyl-2-(4-(trifluoromethoxy)benzyl)-2-aza-spiro[4.5]decan-1-one], the IC50 was found to be 80 nM.
The figure for `CC(C)(O)CNC(=O)O[C@H]1CC[C@@]2(CCN(c3ccc(OC(F)(F)F)cc3)C2=O)CC1` [Example 26, (2-Hydroxy-2-methyl-propyl)-carbamic acid [(5α,8β)-1-oxo-2-(4-trifluoromethoxy-phenyl)-2-aza-spiro[4.5]dec-8-yl]ester] is 110 nM; for `CC(C)[C@]1(O)CC[C@]2(CCN(c3ccc(O[C@H](C)C(F)(F)F)nc3)C2=O)CC1` [Example 150, (5α,8α)-8-Hydroxy-8-isopropyl-2-[6-((R)-2,2,2-trifluoro-1-methyl-ethoxy)-pyridin-3-yl]-2-aza-spiro[4.5]decan-1-one] it is 20 nM; for `CCC(O)[C@H]1CC[C@@]2(CCN(c3ccc(C(C)(C)C)cc3)C2=O)CC1` (stereo partly drawn) [Example 359, (5α,8β)-2-(4-tert-Butyl-phenyl)-8-(1-hydroxy-propyl)-2-aza-spiro[4.5]decan-1-one] it is 30 nM.
For `CCO[C@H](c1ccc(N2CC[C@]3(CC[C@@](O)(COC)CC3)C2=O)cc1)C(F)(F)F` [Example 140, (5α,8α)-2-(4-((R)-1-Ethoxy-2,2,2-trifluoroethyl)phenyl)-8-hydroxy-8-(methoxymethyl)-2-aza-spiro[4.5]decan-1-one] the value was 160 nM; for `CCC[C@]1(O)CC[C@]2(CCN(c3ccc(C4CC4)cc3)C2=O)CC1` [Example 75, (5α,8α)-2-(4-Cyclopropyl-phenyl)-8-hydroxy-8-propyl-2-aza-spiro[4.5]decan-1-one], 30 nM.
Take `O=C(NCc1ccc(F)cc1)O[C@H]1CC[C@@]2(CCN(c3ccc(OC(F)(F)F)cc3)C2=O)CC1` [Example 15, (4-Fluoro-benzyl)-carbamic acid [(5α,8β)-1-oxo-2-(4-trifluoromethoxy-phenyl)-2-aza-spiro[4.5]dec-8-yl]ester]: the half-maximal inhibitory concentration (IC50) stood at 70 nM.
Take `C[C@@H](Oc1ccc(N2CC[C@]3(CC[C@@](O)(COCC(F)(F)F)CC3)C2=O)cc1)C(F)(F)F` [Example 285, (5α,8α)-8-Hydroxy-8-(2,2,2-trifluoro-ethoxymethyl)-2-[4-((R)-2,2,2-trifluoro-1-methyl-ethoxy)-phenyl]-2-aza-spiro[4.5]decan-1-one]: the half-maximal inhibitory concentration (IC50) is 10 nM.
The figure for `O=C1N(c2ccc(OCC(F)(F)F)cc2)CC[C@]12CC[C@@](O)(COc1ccccn1)CC2` [Example 371, (5α,8α)-8-Hydroxy-8-(pyridin-2-yloxymethyl)-2-[4-(2,2,2-trifluoro-ethoxy)-phenyl]-2-aza-spiro[4.5]decan-1-one] is 20 nM; for `CCCC[C@]1(O)CC[C@]2(CCN(c3ccc(OCCOC)cc3)C2=O)CC1` [Example 96, (5α,8α)-8-Butyl-8-hydroxy-2-[4-(2-methoxy-ethoxy)-phenyl]-2-aza-spiro[4.5]decan-1-one] it is 60 nM.
The figure for `CCC(O)[C@H]1CC[C@@]2(CCN(c3ccc(O[C@H](C)C(F)(F)F)cc3)C2=O)CC1` (stereo partly drawn) [Example 365, (5α,8β)-8-(1-Hydroxy-propyl)-2-[4-((R)-2,2,2-trifluoro-1-methyl-ethoxy)-phenyl]-2-aza-spiro[4.5]decan-1-one] is 50 nM; for `CCC[C@]1(O)CC[C@]2(CCN(c3ccc(C(C)(C)C)cc3)C2=O)CC1` [Example 343, (5α,8α)-2-(4-tert-Butyl-phenyl)-8-hydroxy-8-propyl-2-aza-spiro[4.5]decan-1-one] it is 20 nM; for `C[C@H](Oc1ccc(N2CC[C@]3(CC[C@@](O)(COCC(F)(F)F)CC3)C2=O)cn1)C(F)(F)F` [Example 281, (5α,8α)-8-Hydroxy-8-(2,2,2-trifluoro-ethoxymethyl)-2-[6-((S)-2,2,2-trifluoro-1-methyl-ethoxy)-pyridin-3-yl]-2-aza-spiro[4.5]decan-1-one] it is 10 nM.
For `CCC[C@]1(O)CC[C@]2(CCN(c3ccc(OC(F)(F)F)cc3)C2=O)CC1` [Example 55, (5α,8α)-8-Hydroxy-8-propyl-2-(4-trifluoromethoxy-phenyl)-2-aza-spiro[4.5]decan-1-one] the value was 20 nM.
As to `CCC[C@]1(O)CC[C@@]2(CCN(c3ccc(OC(C)C(F)(F)F)cc3)C2=O)CC1` (stereo partly drawn) [Example 163, (5α,8β)-8-Hydroxy-8-propyl-2-[4-(2,2,2-trifluoro-1-methyl-ethoxy)-phenyl]-2-aza-spiro[4.5]decan-1-one], the concentration for half-maximal inhibition (IC50) came to 790 nM.
For `C[C@@H](Oc1ccc(N2CC[C@]3(CC[C@@](O)(C(F)(F)F)CC3)C2=O)cn1)C(F)(F)F` [Example 174, (5α,8α)-8-Hydroxy-8-trifluoromethyl-2-[6-((R)-2,2,2-trifluoro-1-methyl-ethoxy)-pyridin-3-yl]-2-aza-spiro[4.5]decan-1-one] the value was 60 nM; for `C[C@]1(O)CC[C@@]2(CCN(c3ccc(CC(F)(F)F)cc3)C2=O)CC1` [Example 78, (5α,8β)-8-Hydroxy-8-methyl-2-[4-(2,2,2-trifluoro-ethyl)-phenyl]-2-aza-spiro[4.5]decan-1-one], 900 nM; for `O=C1N(c2ccc3c(c2)OC(F)(F)O3)CC[C@]12CC[C@@](O)(C(F)(F)F)CC2` [Example 336, (5α,8α)-2-(2,2-Difluoro-benzo[1,3]dioxol-5-yl)-8-hydroxy-8-trifluoromethyl-2-aza-spiro[4.5]decan-1-one], 210 nM.
Consider `O=C1N(c2ccc(OCC(F)(F)F)cc2)CC[C@]12CC[C@](O)(COCC(F)F)CC2` [Example 243, (5α,8β)-8-(2,2-Difluoro-ethoxymethyl)-8-hydroxy-2-[4-(2,2,2-trifluoro-ethoxy)-phenyl]-2-aza-spiro[4.5]decan-1-one], for which the IC50 is 300 nM.
In the case of `C[C@H](Oc1ccc(N2CC[C@]3(CC[C@](O)(COCC(F)F)CC3)C2=O)cn1)C(F)(F)F` [Example 296, (5α,8β)-8-(2,2-Difluoro-ethoxymethyl)-8-hydroxy-2-[6-((S)-2,2,2-trifluoro-1-methyl-ethoxy)-pyridin-3-yl]-2-aza-spiro[4.5]decan-1-one], the IC50 was found to be 550 nM.
Turning to `CC(Oc1ccc(N2CC[C@]3(CC[C@@](O)(C4CC4)CC3)C2=O)cc1)C(F)(F)F` (stereo partly drawn) [Example 181, (5α,8α)-8-Cyclopropyl-8-hydroxy-2-[4-(2,2,2-trifluoro-1-methyl-ethoxy)-phenyl]-2-aza-spiro[4.5]decan-1-one], the 50% inhibitory concentration (IC50) was 20 nM.
Consider `O=C1N(c2ccc(OC(F)(F)F)cc2)CC[C@]12CC[C@@H](S(=O)(=O)c1ccccc1)CC2` [Example 53, (5α,8β)-8-Benzenesulfonyl-2-(4-trifluoromethoxy-phenyl)-2-aza-spiro[4.5]decan-1-one], for which the IC50 turned out to be 30 nM.
The figure for `CC(C)c1ccc(N2CC[C@]3(CC[C@@](O)(C(C)C)CC3)C2=O)cn1` [Example 102, (5α,8α)-8-Hydroxy-8-isopropyl-2-(6-isopropylpyridin-3-yl)-2-aza-spiro[4.5]decan-1-one] is 100 nM; for `C[C@@H](Oc1ccc(N2CC[C@]3(CC[C@@](O)(C4CC4)CC3)C2=O)cc1)C(F)(F)F` [Example 181a, (5α,8α)-8-Cyclopropyl-8-hydroxy-2-[4-((R)-2,2,2-trifluoro-1-methyl-ethoxy)-phenyl]-2-aza-spiro[4.5]decan-1-one] it is 20 nM.
For `C[C@H](Oc1ccc(N2CC[C@]3(CC[C@@](O)(COCC(F)(F)F)CC3)C2=O)cc1)C(F)(F)F` [Example 283, (5α,8α)-8-Hydroxy-8-(2,2,2-trifluoro-ethoxymethyl)-2-[4-((S)-2,2,2-trifluoro-1-methyl-ethoxy)-phenyl]-2-aza-spiro[4.5]decan-1-one], the concentration for half-maximal inhibition (IC50) worked out at 10 nM.

(Values after patent US8440710B2, “HSL inhibitors useful in the treatment of diabetes” (Hoffmann-La Roche Inc., priority 2009, dated 2013).)
